The text below walks through data of publication PMC7700809 (Molecular Biomedicine, 2020).

Assay [1] deals with SARS-CoV-2. Put plainly: microbe, parasite or virus in culture. It counts as cell-based. To be noted: Severe acute respiratory syndrome coronavirus 2, Vero, read-out: EC50 antiviral replication effect.
For assay [2], the system named is SARS-CoV-2. Put plainly: microbe, parasite or virus in culture. Format: cell-based.

The term EC50 denotes the concentration giving half of the maximal effect. Regarding `CCC(CC)COC(=O)[C@H](C)N[P@](=O)(OC[C@H]1O[C@@](C#N)(c2ccc3c(N)ncnn23)[C@H](O)[C@@H]1O)Oc1ccccc1` [Remdesivir], the EC50 in the assay on SARS-CoV-2 [1] was 0.24 µM. Also, the virus entry blocking result with SARS-CoV-2 [2] is reported as “could not block the virus entry”.
